In US5047512A, “Immobilized cyclophilin and methods of using such” (priority 1987, dated 1991):
Several values for one entry are separate records, joined by “and”; a condition that tells them apart may be missing. Identical values can stand only once. Where a SMILES comes first, the peptide text is derived from it. [ ]: non-standard residue; d: D form. NMe(dihydroBmt) = CCCC[C@@H](C)[C@@H](O)[C@H](NC)C(=O)O; NMeL = CN[C@@H](CC(C)C)C(=O)O; NMeV = CN[C@H](C(=O)O)C(C)C; Sar = CNCC(=O)O

How the values were obtained:
[1] = Retention of analog relative to CsA on a uBondapak phenyl column as a measure of hydrophobicity; type: physicochemical; details: isocratic 60% acetonitrile, 1 ml/min
[2] = target: T1, cyclophilin (Bos taurus, UniProt P62935); experiment: Cyclophilin affinity: enhancement of the intrinsic tryptophan fluorescence of cyclophilin by CsA or analogs; type: binding; details: 5 ug/ml cyclophilin, pH 7.2; for Cyclophilin affinity 0.25 ug/ml: ligand 0.25 ug/ml; for Cyclophilin affinity 1.0 ug/ml: ligand 1.0 ug/ml
T1 construct: from tissue; host or cells: purified from tissue cytosol

[3] = Isoelectric point of cyclophilin; type: physicochemical
Experimental: The column was harvested at a flow rate of 1 ml/min. and the pH of each fraction was measured prior to titration with 1M potassium dihydrogen phosphate to pH 7.0.

[4] = Stability of CsA binding activity of cyclophilin; type: physicochemical
Description: Similarly, it can be used to purify the ligand from a composition containing ligand. For example, the cyclophilin can be used for purifying CsA or related structures from a yeast fermentation broth in which the CsA is produced. Further, it can be used to select compounds which bind to cyclophilin as a screening test for identifying new immunosuppressant drugs. In these various procedures, it is preferred, although not required, to immobilize the cyclophilin. This can be accomplished by any procedure known in the art. A particularly useful immobilizing matrix is agarose having carboxy terminated C12 spacer arm esterfied to N-hydroxysuccinimide. This matrix is commercially available under the name Affigel-10 (Biorad). The immobilized cyclophilin is prepared by effecting a transamination with the N-hydroxysuccinimide being split off and the cyclophilin replacing it. The binding of the cyclophilin to this matrix can result in a marked stabilization of the bound activity through a three-dimensional stabilization achieved by multiple bonds through the ε-amino groups of lysine.

[5] = CsA binding activity (3H-CsA binding, Sephadex LH-20 columns); details: for CsA binding specific activity: purified bovine isoforms, weak cation exchange HPLC; for CsA bound per mole of cyclophilin species: stoichiometry, major and minor isoforms
Experimental: A typical procedure for the purification of cyclophilin will next be described. […] After addition of 10 ul ^3 H-CsA (50 ug/ml; 0.05 uCi/ml in 40% ethanol), tubes were agitated gently and 50 ul was applied to 1.8 ml Sephadex LH-20 (hydroxypropylated […]) columns pre-equilibrated with assay buffer. The samples were then washed into the columns with 500 ul of assay buffer followed by an additional 500 ul to elute cyclophilin-CsA complexes. Elution fractions were diluted in 5.6 ml Liquiscint (a fluor-containing liquid to permit β-scintillation counting of ^3 H) and the binding activity quantified as equal to (cpm - background).div.(quench correction×^3 H-CsA specific activity)×(volume of test sample).
The isoforms of bovine cyclophilin were separated by weak cation exchange high pressure liquid chromatography. […] Samples were injected onto a weak cation exchange HPLC column (Synchropak CM300:[…]; pore size 300 Å) pre-equilibrated with 5 mM potassium phosphate, 5 mM 2-ME, pH 7.2. The isoforms were eluted at 1 ml/min with a concave gradient (5 mM potassium phosphate, pH 7.2 to 175 mM NaCl, 5 mM potassium phosphate, pH 7.2) generated with a gradient programmer. Milligram quantities of the bovine cyclophilin isoforms were obtained by automating injection, gradient elution and collection. […] The disassociation constant is about 2×10^-7 M.

T1 sequence (P62935 whole entry): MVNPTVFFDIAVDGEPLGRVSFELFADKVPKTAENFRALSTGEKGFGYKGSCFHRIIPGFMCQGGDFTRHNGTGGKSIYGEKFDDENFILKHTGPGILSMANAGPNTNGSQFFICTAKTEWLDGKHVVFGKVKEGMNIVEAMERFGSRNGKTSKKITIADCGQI

Compound | Retention time of analog relative to CsA [1] | Cyclophilin affinity 0.25 ug/ml [2] | Cyclophilin affinity 1.0 ug/ml [2] | further results
C/C=C/C[C@@H](C)[C@@H](O)[C@H]1C(=O)N[C@@H](CCC)C(=O)N(C)CC(=O)N(C)[C@@H](CC(C)C)C(=O)N[C@@H](C(C)C)C(=O)N(C)[C@@H](CC(C)C)C(=O)N[C@@H](C)C(=O)N[C@H](C)C(=O)N(C)[C@@H](CC(C)C)C(=O)N(C)[C@@H](CC(C)C)C(=O)N(C)[C@@H](C(C)C)C(=O)N1C [CsG] | 1.14 | 0.30 | 0.87 | 
Bovine cyclophilin: Bovine thymocyte cyclophilin contains 163 amino acid residues; sequence in FIG. 1 |  |  |  | isoelectric point [3]: about 9.6
Human cyclophilin: N-terminal sequence (72 residues) of bovine and human cyclophilin is completely identical |  |  |  | isoelectric point [3]: 7.4 and 9.1
cyclophilin: homogeneous cytosolic binding protein which has a molecular weight of approximately 17,600 daltons |  |  |  | stability of CsA binding activity ([4]; temperature, pH, proteases, in words): unstable at 56 °C and at pH 4 or 9.5, and sensitive to proteases, i.e. trypsin; irreversible loss of CsA binding activity ([4]; unbound cyclophilin in solution with 8M urea, after dialysis): at least 60%; loss of CsA binding activity in 30% acetonitrile ([4]; unbound cyclophilin, 10 minute exposure to 30% acetonitrile): complete loss of activity; CsA binding specific activity of purified cyclophilin ([5]; purified cyclophilin): above 50 ug per mg of protein
major isoform of cyclophilin: major isoform of bovine cyclophilin separated by weak cation exchange HPLC |  |  |  | CsA binding specific activity [5]: 77 ug per mg of protein; CsA bound per mole of cyclophilin species [5]: about one
minor isoform of cyclophilin: minor isoform of bovine cyclophilin separated by weak cation exchange HPLC |  |  |  | CsA binding specific activity [5]: 67 ug per mg of protein; CsA bound per mole of cyclophilin species [5]: about one

Second part, led by results:

Retention time of analog relative to CsA [1] | Cyclophilin affinity 0.25 ug/ml [2] | Cyclophilin affinity 1.0 ug/ml [2] | Compound | further results
0.70 | 0.31 | 0.69 | C/C=C/C[C@@H](C)[C@@H](O)[C@H]1C(=O)N[C@@H]([C@@H](C)O)C(=O)N(C)CC(=O)N(C)[C@@H](CC(C)C)C(=O)N[C@@H](C(C)C)C(=O)N(C)[C@@H](CC(C)C)C(=O)N[C@@H](C)C(=O)N[C@H](C)C(=O)N(C)[C@@H](CC(C)C)C(=O)N(C)[C@@H](CC(C)C)C(=O)N(C)[C@@H](C(C)C)C(=O)N1C [CsC, cyclosporin C] | 
1.20 | 0.21 | 0.69 | C/C=C/C[C@@H](C)[C@@H](O)[C@H]1C(=O)N[C@@H](C(C)C)C(=O)N(C)CC(=O)N(C)[C@@H](CC(C)C)C(=O)N[C@@H](C(C)C)C(=O)N(C)[C@@H](CC(C)C)C(=O)N[C@@H](C)C(=O)N[C@H](C)C(=O)N(C)[C@@H](CC(C)C)C(=O)N(C)[C@@H](CC(C)C)C(=O)N(C)[C@@H](C(C)C)C(=O)N1C [CsD] | 
0.79 | 0.33 | 0.70 | CCCC[C@@H](C)[C@@H](O)[C@H]1C(=O)N[C@@H]([C@@H](C)O)C(=O)N(C)CC(=O)N(C)[C@@H](CC(C)C)C(=O)N[C@@H](C(C)C)C(=O)N(C)[C@@H](CC(C)C)C(=O)N[C@@H](C)C(=O)N[C@H](C)C(=O)N(C)[C@@H](CC(C)C)C(=O)N(C)[C@@H](CC(C)C)C(=O)N(C)[C@@H](C(C)C)C(=O)N1C [Dihydro-CsC] (cyclo(A[dA][NMeL][NMeL][NMeV][NMe(dihydroBmt)]T[Sar][NMeL]V[NMeL])) | 
1.28 | 0.19 | 0.72 | CCCC[C@@H](C)[C@@H](O)[C@H]1C(=O)N[C@@H](C(C)C)C(=O)N(C)CC(=O)N(C)[C@@H](CC(C)C)C(=O)N[C@@H](C(C)C)C(=O)N(C)[C@@H](CC(C)C)C(=O)N[C@@H](C)C(=O)N[C@H](C)C(=O)N(C)[C@@H](CC(C)C)C(=O)N(C)[C@@H](CC(C)C)C(=O)N(C)[C@@H](C(C)C)C(=O)N1C [Dihydro-CsD] (cyclo(A[dA][NMeL][NMeL][NMeV][NMe(dihydroBmt)]V[Sar][NMeL]V[NMeL])) | 
1.69 | -0.02 | -0.03 | C/C=C/C[C@@H](C)[C@@H](OC(C)=O)[C@H]1C(=O)N[C@@H](CC)C(=O)N(C)CC(=O)N(C)[C@@H](CC(C)C)C(=O)N[C@@H](C(C)C)C(=O)N(C)[C@@H](CC(C)C)C(=O)N[C@@H](C)C(=O)N[C@H](C)C(=O)N(C)[C@@H](CC(C)C)C(=O)N(C)[C@@H](CC(C)C)C(=O)N(C)[C@@H](C(C)C)C(=O)N1C [O-Acetyl-CsA] | 
